Source: US6949516B2, “Dipeptide apoptosis inhibitors and the use thereof” (Cytovia, Inc., priority 1997, dated 2005)
pIC50: −log10 of the molar value.

Experiments:
CPP32 = molecular target: T1, CPP32 (Homo sapiens, UniProt P42574); assay: Fluorometric enzyme assay, CPP32; type: biochemical; details: recombinant CPP32, 37° C., 30 minutes
T1 construct: made in house; host or cells: Sf9 insect cells, baculovirus vector
T1 sequence (P42574 29-175 limits assumed): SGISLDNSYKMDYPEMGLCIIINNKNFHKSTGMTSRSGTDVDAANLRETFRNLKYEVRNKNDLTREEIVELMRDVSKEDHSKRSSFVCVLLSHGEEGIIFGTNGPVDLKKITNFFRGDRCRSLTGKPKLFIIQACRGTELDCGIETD
Procedure: (§1) The activities of Cbz-Val-Asp(OMe)-CH2F and Cbz-Val-Asp-CH2F (free acid) as inhibitors of CPP32, ICE and cathepsin B were measured in a fluorometric enzyme assay. Recombinant CPP32 protein and ICE protein were prepared by expressing DNA clones encoding these enzymes in an insect host cell (sf9 cells) using baculovirus as the vector. See, Webb, N.R. et al., “Expression of proteins using recombinant Baculovirus,” Techniques 2:173-188 (1990). Preparations of native cathepsin were acquired from a commercial source. Enzyme activity was measured using synthetic peptide substrates attached to a fluorogenic leaving group. Cleavage of the synthetic substrate by the enzyme results in a fluorescent signal which is read in a spectrofluorometer or in a fluorometric microtiter plate reader.
CPP32 activity was measured using the following buffer conditions: 100 mM HEPES pH 7.5, with 10% sucrose, 1% CHAPS, 5 mM glutathione, and 5 μM peptide substrate. The peptide substrate consisted of an oligomer with the sequence Asp-Glu-Val-Asp (SEQ ID NO:1) with the fluorogenic compound aminomethylcoumarin conjugated to the C-terminus. The assay for enzyme activity was typically carried out at 37° C. for 30 minutes.

ICE = molecular target: T2, ICE (Homo sapiens, UniProt P29466); assay: Fluorometric enzyme assay, ICE; type: biochemical; details: recombinant ICE
T2 construct: made in house; host or cells: Sf9 insect cells, baculovirus vector
T2 sequence (P29466 120-297 limits assumed): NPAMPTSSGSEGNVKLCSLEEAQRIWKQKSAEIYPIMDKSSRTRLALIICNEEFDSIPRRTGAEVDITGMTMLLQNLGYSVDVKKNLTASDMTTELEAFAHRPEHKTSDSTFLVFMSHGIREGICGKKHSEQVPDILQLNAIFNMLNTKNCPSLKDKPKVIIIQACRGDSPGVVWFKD
Procedure: as §1

Cathepsin B = molecular target: T3, Cathepsin B (Homo sapiens, UniProt P07858); assay: Fluorometric enzyme assay, cathepsin B; type: biochemical; details: native cathepsin, commercial source
T3 construct: Preparations of native cathepsin were acquired from a commercial source; purchased
Procedure: as §1

Factor Xa = assay: Protease inhibition, Factor Xa; type: biochemical
Text: (§2) Table I lists the IC50 of Cbz-Val-Asp(OMe)-CH2F and Cbz-Val-Asp-CH2F (free acid) for CPP32 and other proteases.

Thrombin = Thrombin (Homo sapiens, UniProt P00734); assay: Protease inhibition, thrombin; type: biochemical
Text: as §2

[1] = tested on: DNA laddering in Jurkat cells; assay: DNA laddering in antiFas-treated Jurkat cells; type: cell-based, human; details: antiFas 100 ng/mL for 4 hours
Text: In the later stages of apoptosis, cells begin to literally fall apart as pieces of the cytoplasm are shed (through blebbing) and the nucleus is disassembled. One of the hallmarks of nuclear disassembly is the cleavage of genomic DNA into nucleosome-sized fragments (termed “DNA laddering”). DNA laddering, like other late stage apoptotic events, is considered to be irreversible, so it is important to determine whether an anti-apoptotic drug can prevent its occurrence.
The ability of Z-VD-fmk to block DNA laddering was tested using antiFas-treated Jurkat cells. Jurkat cells were plated in 60 mm dishes at a density of 5×10^6 cells and pre-incubated with varying concentrations of Z-VD-fmk. They were then challenged with antiFas at 100 ng/mL for 4 hours, harvested, and pelleted and washed with PBS twice. Genomic DNA was isolated using the method of Eldadah et al. (1996). Briefly, the cells were lysed in 2 mL of 7M guanidine HCl and mixed with 1 mL of Wizard miniprep DNA purification resin (Promega). The resin/DNA complex was washed twice with buffer and the DNA was eluted in TE. 1 to 2 μg of this DNA sample was electrophoresed on a 1% agarose/TBE gel and the gel was stained with ethidium bromide.
Vehicle treated cells which were challenged with antiFas show a characteristic laddering pattern of DNA extending down to about 300 bp. […]

[2] = tested on: mouse liver apoptosis model; assay: Mouse liver apoptosis model (antiFas-induced lethality); type: in vivo; details: mice
Procedure: The in vivo activity of the cell death inhibitors of the invention can be tested using the “mouse liver apoptosis” model described by Rodriguez et al. (Rodriguez et al., J. Exp. Med., 184:2067-2072 (1996)). In this model, mice are treated intravenously (IV) with an antiFas antibody which induces massive apoptosis in the liver and other organs, leading to generalized organ failure and death. This model is useful for indirectly testing the systemic bioavailability of the cell death inhibitors of the invention, as well as their in vivo anti-apoptotic properties. The cell death inhibitors of the invention therefore can be used to reduce or prevent apoptosis of liver cells (Jones et al. Hepatology 27: 1632-42 (1998)) such as in sepsis (Jaeschke et al. J. Immunol. 160: 3480-3486 (1998)) and hereditary tyrosinemia type 1 (HT1) (Kubo et al. Prov. Natl. Acad Sci. USA, 95: 9552-9557 (1998). The cell death inhibitors of the invention also can be used to treat hepatitis (Suzuki, Proc. Soc. Exp. Biol. Med. 217: 450-454 (1998)).
Three to four week old female mice were used in the studies. Liver degeneration was induced by intravenous injection with 2-6 μg of a purified hamster anti-mouse Fas monoclonal antibody (clone Jo2, Pharmingen) against mouse Fas antigen diluted in 80 μl of phosphate buffered physiological saline (Rodriguez, et al., 1996). Mortality was used as the end point to assess liver degeneration. Cbz-Val-Asp-CH2F was formulated in Tris buffer for intravenous infusion and tested at a dose of 1-10 mg/kg given IV via the tail vein. Ten minutes later, animals were injected with Fas antibody. Mortality was counted at 30 mins, 1, 3 and 24 h. For each compound there were groups of control animals that receive Fas antibody only.

Row | SMILES | pIC50 (CPP32) | pIC50 (ICE) | pIC50 (Cathepsin B) | pIC50 (Factor Xa) | pIC50 (Thrombin) | dose inhibiting DNA ladder formation [1] | induction of the liver enzymes SPGT and SGOT ([2]; antiFas, separate studies) | protection from antiFas-induced lethality ([2]; single 1 mg/kg IV dose, up to 1 h after antibody administration) | survival ([2]; up to 24 h after antiFas)
1 | CC(C)[C@H](NC(=O)OCc1ccccc1)C(=O)NC(CC(=O)O)C(=O)CF (stereo partly drawn) [Cbz-Val-Asp-CH2F, Z-Val-Asp-fmk] | 7.37 | 7.70 | < 5.00 | < 4.00 | < 4.00 | ≤ 50 nM | attenuation | completely protected | 28%
2 | COC(=O)CC(NC(=O)C(NC(=O)OCc1ccccc1)C(C)C)C(=O)CF (stereo not drawn) [Cbz-Val-Asp(OMe)-CH2F, Z-Val-Asp-fmk Methyl Ester] | 5.96 | 6.05 | 6.52 | < 4.00 | < 4.00 | – | – | – | –
